Measured values as given in patent publication US20240277796A1, “METHODS FOR INHIBITING RAS” (Revolution Medicines, Inc., priority 2021, published 2024).
“And” between values parts separate entries of the source, which are not always exact repeats. Identical values can stand only once. Like-named read-outs stand apart in the source and are kept apart here.

Key:
[1] = 18-membered ring, DCM
NCI-H358 (K-Ras G12C) = experiment: pERK potency assay, NCI-H358; format: cell-based; conditions: Homo sapiens; NCI-H358 cells, 4 hours incubation with compound
Description: The purpose of this assay was to measure the ability of test compounds to inhibit K-Ras in cells. Activated K-Ras induces increased phosphorylation of ERK at Threonine 202 and Tyrosine 204 (pERK). This procedure measures a decrease in cellular pERK in response to test compounds. The procedure described below in NCI-H358 cells is applicable to K-Ras G12C. […]
NCI-H358 cells were grown and maintained using media and procedures recommended by the ATCC. On the day prior to compound addition, cells were plated in 384-well cell culture plates (40 μl/well) and grown overnight in a 37° C., 5% CO2 incubator. Test compounds were prepared in 10, 3-fold dilutions in DMSO, with a high concentration of 10 mM. On the day of assay, 40 nL of test compound was added to each well of cell culture plate using an Echo550 liquid handler (LabCyte®). Concentrations of test compound were tested in duplicate. After compound addition, cells were incubated 4 hours at 37° C., 5% CO2. Following incubation, culture medium was removed and cells were washed once with phosphate buffered saline.
In some experiments, cellular pERK level was determined using the AlphaLISA SureFire Ultra p-ERK1/2 Assay Kit (PerkinElmer). Cells were lysed in 25 μL lysis buffer, with shaking at 600 RPM at room temperature. Lysate (10 μL) was transferred to a 384-well Opti-plate (PerkinElmer) and 5 μL acceptor mix was added. After a 2-hour incubation in the dark, 5 μL donor mix was added, the plate was sealed, and incubated 2 hours at room temperature. Signal was read on an Envision plate reader (PerkinElmer) using standard AlphaLISA settings. Analysis of raw data was carried out in Excel (Microsoft) and Prism (GraphPad). Signal was plotted vs. the decadal logarithm of compound concentration, and IC50 was determined by fitting a 4-parameter sigmoidal concentration response model.
In other experiments, cellular pERK was determined by In-Cell Western. Following compound treatment, cells were washed twice with 200 μL tris buffered saline (TBS) and fixed for 15 minutes with 150 μL 4% formaldehyde in TBS. Fixed cells were washed 4 times for 5 minutes with TBS containing 0.1% Triton X-100 (TBST) and then blocked with 100 μL Odyssey blocking buffer (LI-COR) for 60 minutes at room temperature. Primary antibody (pERK, CST-4370, Cell Signaling Technology) was diluted 1:200 in blocking buffer, and 50 μL were added to each well and incubated overnight at 4° C. Cells were washed 4 times for 5 minutes with TBST. Secondary antibody (IR-800CW rabbit, LI-COR, diluted 1:800) and DNA stain DRAQ5 (LI-COR, diluted 1:2000) were added and incubated 1-2 hours at room temperature. Cells were washed 4 times for 5 minutes with TBST. Plates were scanned on a Li-COR Odyssey CLx Imager. Analysis of raw data was carried out in Excel (Microsoft) and Prism (GraphPad). Signal was plotted vs. the decadal logarithm of compound concentration, and IC50 was determined by fitting a 4-parameter sigmoidal concentration response model.

| Compound | IC50 (NCI-H358 (K-Ras G12C)) [nM] | further results |
| --- | --- | --- |
| CCn1c(-c2cc(N3CCN4CCCC[C@@H]4C3)cnc2[C@H](C)OC)c2c3cc(ccc31)-c1cccc(c1)C[C@H](NC(=O)OC(C)(C)C)C(=O)N1CCC[C@H](N1)C(=O)OCC(C)(C)C2 | – | ring closure, isolated yield ([1]; from CCn1c(-c2cc(N3CCN4CCCC[C@@H]4C3)cnc2[C@H](C)OC)c(CC(C)(C)CO)c2cc(-c3cccc(C[C@H](NC(=O)OC(C)(C)C)C(=O)N4CCC[C@@H](C(=O)O)N4)c3)ccc21, ester bond, EDCI/HOBt/DIPEA, 11.3 mM, 16.0 h): 62% |
| CCn1c(-c2cc(N3CCN4CCOC[C@@H]4C3)cnc2[C@H](C)OC)c2c3cc(ccc31)C1=CCCN(C1)C[C@H](NC(=O)OC(C)(C)C)C(=O)N1CCC[C@H](N1)C(=O)OCC(C)(C)C2 | – | ring closure, isolated yield ([1]; from CCn1c(-c2cc(N3CCN4CCOC[C@@H]4C3)cnc2[C@H](C)OC)c(CC(C)(C)CO)c2cc(C3=CCCN(C[C@H](NC(=O)OC(C)(C)C)C(=O)N4CCC[C@@H](C(=O)O)N4)C3)ccc21, ester bond, EDC.HCl/HOBt/DIEA, 11.3 mM, 0.0 °C, 2.0 h): 67% |
| CO[C@@H](C)c1ncc(N2CCN3CCOC[C@@H]3C2)cc1-c1c2c3cc(ccc3n1CC(F)(F)F)-c1cccc(c1)C[C@H](NC(=O)OC(C)(C)C)C(=O)N1CCC[C@H](N1)C(=O)OCC(C)(C)C2 | – | ring closure, isolated yield ([1]; from CO[C@@H](C)c1ncc(N2CCN3CCOC[C@@H]3C2)cc1-c1c(CC(C)(C)CO)c2cc(-c3cccc(C[C@H](NC(=O)OC(C)(C)C)C(=O)N4CCC[C@@H](C(=O)O)N4)c3)ccc2n1CC(F)(F)F, ester bond, EDCI/HOBt/DIPEA, 5.3 mM, 16.0 h): 98% |
| CO[C@@H](C)c1ncccc1-c1c2c3cc(ccc3n1CC(F)(F)F)-c1coc(n1)C[C@H](NC(=O)OCc1ccccc1)C(=O)N1CCC[C@H](N1)C(=O)OCC(C)(C)C2 | – | ring closure, isolated yield ([1]; from CO[C@@H](C)c1ncccc1-c1c(CC(C)(C)COC(=O)[C@@H]2CCCNN2)c2cc(-c3coc(C[C@H](NC(=O)OCc4ccccc4)C(=O)O)n3)ccc2n1CC(F)(F)F, amide bond, EDCI/HOBt/DIEA, 6.3 mM, 16.0 h): 21% |
| CO[C@@H](C)c1ncccc1-c1c2c3cc(ccc3n1CC(F)(F)F)C1CCN(C1)C[C@H](NC(=O)OC(C)(C)C)C(=O)N1CCC[C@H](N1)C(=O)OCC(C)(C)C2 | – | ring closure, isolated yield ([1]; from CO[C@@H](C)c1ncccc1-c1c(CC(C)(C)CO)c2cc(C3CCN(C[C@H](NC(=O)OC(C)(C)C)C(=O)N4CCC[C@@H](C(=O)O)N4)C3)ccc2n1CC(F)(F)F, ester bond, EDCI/HOBt/DIEA, 7.1 mM, 16.0 h): 21% |
| C=CC(=O)N1CCOC2(CCN(C(=O)N(C)[C@H](C(=O)N[C@H]3Cc4cncc(n4)-c4ccc5c(c4)c(c(-c4cccnc4[C@H](C)OC)n5CC)CC(C)(C)COC(=O)[C@@H]4CCCN(N4)C3=O)C(C)C)CC2)C1 (atropisomer, axis not shown) [EA36] | > 1000 | – |
| C=CC(=O)N1COC2(CCN(C(=O)N(C)[C@H](C(=O)N[C@H]3CC4=NC=C(O4)c4ccc5c(c4)c(c(-c4cccnc4[C@H](C)OC)n5CC)CC(C)(C)COC(=O)[C@@H]4CCCN(N4)C3=O)C(C)C)CC2)C1 (atropisomer, axis not shown) [EA37] | > 1000 | – |
| C=CC(=O)N1CCN(CC)C2(CCN(C(=O)N(C)[C@H](C(=O)N[C@H]3C[C@H]4CN(CCO4)c4ccc5c(c4)c(c(-c4cccnc4[C@H](C)OC)n5CC)CC(C)(C)COC(=O)[C@@H]4CCCN(N4)C3=O)C(C)C)CC2)C1 (atropisomer, axis not shown) [EA38] | > 1000 | – |
| C=CC(=O)N1CC2(CCN(C(=O)N(C)[C@H](C(=O)N[C@H]3C[C@H]4CN(CCO4)c4ccc5c(c4)c(c(-c4cccnc4[C@H](C)OC)n5CC)CC(C)(C)COC(=O)[C@@H]4CCCN(N4)C3=O)C(C)C)CC2)C1 (atropisomer, axis not shown) [EA121] | > 1000 | – |
| C=CC(=O)N1CCOC2(CCN(C(=O)N(C)[C@H](C(=O)N[C@H]3Cc4cncc(c4)-c4ccc5c(c4)c(c(-c4cccnc4[C@H](C)OC)n5CC)CC(C)(C)COC(=O)[C@@H]4CCCN(N4)C3=O)C(C)C)CC2)C1 (atropisomer, axis not shown) [EA124] | > 1000 | – |
| CCn1c(-c2cccnc2[C@H](C)OC)c2c3cc(ccc31)N1CCO[C@@H](C[C@H](NC(=O)[C@H](C(C)C)N(C)C(=O)N3CCC4(CC3)CN(C(=O)/C=C/CF)C4)C(=O)N3CCC[C@H](N3)C(=O)OCC(C)(C)C2)C1 (atropisomer, axis not shown) [EA128] | > 1000 | – |
| C=CC(=O)N1CCOC2(CCN(C(=O)N(C)[C@H](C(=O)N[C@H]3C[C@@]4(C)CN(CCO4)c4ccc5c(c4)c(c(-c4cccnc4[C@H](C)OC)n5CC)CC(C)(C)COC(=O)[C@@H]4CCCN(N4)C3=O)C(C)C)CC2)C1 (atropisomer, axis not shown) [EA130] | > 890 | – |
| C=CC(=O)N1CCOC2(C1)CN(C(=O)N(C)[C@H](C(=O)N[C@H]1C[C@H]3CN(CCO3)c3ccc4c(c3)c(c(-c3cccnc3[C@H](C)OC)n4CC)CC(C)(C)COC(=O)[C@@H]3CCCN(N3)C1=O)C(C)C)C2 (atropisomer, axis not shown) [EA136] | > 1000 | – |
| C=CC(=O)N1CCN(C)C2(CCN(C(=O)N(C)[C@H](C(=O)N[C@H]3C[C@H]4CN(CCO4)c4ccc5c(c4)c(c(-c4cccnc4[C@H](C)OC)n5CC)CC(C)(C)COC(=O)[C@@H]4CCCN(N4)C3=O)C(C)C)CC2)C1 (atropisomer, axis not shown) [EA189] | > 1000 | – |
| C=CC(=O)N1CCOC2(CCN(C(=O)N(C)[C@H](C(=O)N[C@H]3Cc4nccc(n4)-c4ccc5c(c4)c(c(-c4cccnc4[C@H](C)OC)n5CC)CC(C)(C)COC(=O)[C@@H]4CCCN(N4)C3=O)C(C)C)CC2)C1 (atropisomer, axis not shown) [EA191] | > 1000 | – |
| CCn1c(-c2cccnc2[C@H](C)OC)c2c3cc(ccc31)C1=CCCN(C1)C[C@H](NC(=O)[C@H](C(C)C)N(C)C(=O)N1CCC3(CCN(C(=O)/C=C/CN(C)C)C3)CC1)C(=O)N1CCC[C@H](N1)C(=O)OCC(C)(C)C2 (atropisomer, axis not shown) [EA192] | > 1000 | – |
| prop-2-en-1-yl N-[(7S,13S,19M)-21-ethyl-20-[2-[(1 S)-1-methoxyethyl]pyridin-3-yl]-17,17-dimethyl-8,14-dioxo-4,15-dioxa-3,9,21,27,28-pentaazapentacyclo[17.5.2.1^[2,5]0.1^[9,13]0.0^[22,26]]octacosa-1(25),2,5(28),19,22(26),23-hexaen-7-yl]carbamate | – | ring closure, isolated yield ([1]; amide bond, HATU/DIEA, 139.0 mM): 33% |
| tert-butyl ((6^3S,4S)-1^2-(2-((S)-1-methoxyethyl)pyridin-3-yl)-10,10-dimethyl-5,7-dioxo-1^1-(2,2,2-trifluoroethyl)-6^1,6^2,6^3,6^4,6^5,6^6-hexahydro-1^1H-8-oxa-1(5,3)-indola-6(1,3)-pyridazina-2(3,1)-azetidinacycloundecaphane-4-yl)carbamate | – | ring closure, isolated yield ([1]; ester bond, EDCI/HOBt/DIEA, 6.4 mM, 30.0 °C): 37% |
| tert-butyl ((6^3S,4S,Z)-11-ethyl-1^2-(2-((S)-1-methoxyethyl)pyridin-3-yl)-10,10-dimethyl-5,7-dioxo-6^1,6^2,6^3,6^4,6^5,6^6-hexahydro-1^1H-8-oxa-2(5,3)-oxadiazola-1(5,3)-indola-6(1,3)-pyridazinacycloundecaphane-4-yl)carbamate | – | ring closure, isolated yield ([1]; ester bond, EDCI/HOBt/DIEA, 6.8 mM): 18% |
| tert-butyl ((6^3S, 4S)-1^2-(2-((S)-1-methoxyethyl) pyridin-3-yl)-10,10-dimethyl-5,7-dioxo-1^1-(2,2,2-trifluoroethyl)-6^1,6^2,6^3,6^4,6^5,6^6-hexahydro-1^1H-8-oxa-1(5,3)-indola-6(1,3)-pyridazina-2(3,1)-piperidinacycloundecaphane-4-yl)carbamate | – | ring closure, isolated yield ([1]; ester bond, EDCI/HOBt/DIEA, 6.1 mM): 8% and 9% |
